Measured values published in patent US7691890B2, “Anti-viral uses of leflunomide products” (priority 1998, dated 2010).
Read-outs that look alike come from different tables or passages of the source.

Key:
[1] = cited from earlier work
[2] = test system: Parainfluenza Type 3 Virus; experiment: organism not typed; assay type: cell-based, parainfluenza type 3 virus (14702); conditions: for CPE Inhibition test SI: IC50 divided by EC50
Adenovirus Type 1 [3] = experiment: CPE inhibition test; assay type: cell-based, Adenovirus type 1 (65089/Chicago); conditions: IC50 divided by EC50
Rhinovirus Type 5 [4] = assay type: cell-based; conditions: IC50 divided by EC50
Influenza A (H1N1) [5] = experiment: CPE inhibition test; assay type: cell-based; conditions: for CPE Inhibition test SI: Influenza A (H1N1), IC50 divided by EC50; for EC50: Influenza A virus, H1N1, MDCK, read-out: CPE Inhibition test EC50
Influenza A (H3N2) [6] = experiment: CPE inhibition test; assay type: cell-based; conditions: for CPE Inhibition test SI: Influenza A (H3N2), IC50 divided by EC50; for EC50: Influenza A virus, H3N2, MDCK, read-out: CPE Inhibition test EC50
Rhinovirus Type 5 [7] = experiment: Neutral red uptake test; assay type: cell-based; conditions: IC50 divided by EC50
Influenza A (H3N2) [8] = experiment: Neutral red uptake test; conditions: IC50 divided by EC50
Adenovirus Type 1 [9] = experiment: Neutral red uptake test; assay type: cell-based, Adenovirus type 1 (65089/Chicago); conditions: IC50 divided by EC50
Measles Virus [10] = experiment: microbe, parasite or virus in culture; assay type: cell-based, Measles virus (Chicago strain); conditions: for Neutral Red Uptake test SI: IC50 divided by EC50
Influenza A (H1N1) [11] = experiment: Neutral red uptake test; conditions: IC50 divided by EC50
Measles Virus [12] = experiment: microbe, parasite or virus in culture; assay type: cell-based, Measles virus (Chicago strain); conditions: for CPE Inhibition test SI: IC50 divided by EC50
Influenza B [13] = experiment: CPE inhibition test; assay type: cell-based; conditions: for EC50: Influenza B virus, MDCK, read-out: CPE Inhibition test EC50; for CPE Inhibition test SI: Influenza B, IC50 divided by EC50
[14] = test system: Respiratory Syncytial Virus A; experiment: microbe, parasite or virus in culture; assay type: cell-based, Respiratory syncytial virus (RSV) (A2); conditions: for Neutral Red Uptake test SI: IC50 divided by EC50
hepatitis B virus (HBV) = experiment: microbe, parasite or virus in culture; assay type: cell-based; conditions: for EC50 / EC90: Hepatitis B virus, 216 h; for EC90: HBV DNA, 9 day treatment
[15] = Toxicity to 2.2.15 cells by neutral red dye uptake; assay type: cell-based; conditions: human, 2.2.15 human liver cells
Procedure: Toxicity of test compounds to cultures of 2.2.15 cells was also determined as follows. Four concentrations of each compound were assayed and compared to untreated control cultures. Toxicity was determined by the uptake of neutral red dye, as determined by absorbance at 510 nm relative to untreated cells.

[16] = test system: Respiratory Syncytial Virus A; experiment: microbe, parasite or virus in culture; assay type: cell-based, Respiratory syncytial virus (RSV) (A2); conditions: for CPE Inhibition test SI: IC50 divided by EC50
Influenza B [17] = experiment: Neutral red uptake test; conditions: IC50 divided by EC50
[18] = test system: Parainfluenza Type 3 Virus; experiment: organism not typed; assay type: cell-based, parainfluenza type 3 virus (14702); conditions: for Neutral Red Uptake test SI: IC50 divided by EC50
[19] = test system: CMV pp65, 72 kD IE1, glycoprotein B (gB); experiment: Immunohistochemical staining of CMV proteins in infected HUVEC; assay type: cell-based; conditions: CMV VHL/E, 200 μM A771726 or 1 mM PFA
Procedure: Slides were incubated in the presence of absence of the agents for various intervals, acetone-fixed, and stained by the immunoperoxidase method.

CMV DNA = experiment: Dot blot quantitation of viral DNA in CMV-infected cells; assay type: cell-based; conditions: CMV P8-infected HFF, 48 hours, 100 μM A771726 or 1 mM PFA; identical results in HUVEC (200 μM)
Procedure: All experiments included infected cultures incubated in the presence of 1 mM PFA as well as uninfected controls. 48 hours post-inoculation cells were harvested by trypsin digestion, washed in PBS, and incubated for 12 hours at 50° C. in 0.1 mg/ml proteinase K (Sigma) in digestion buffer (100 mM NaCl, 10 mM Tris-HCl, 25 mM EDTA, 0.5% SDS). DNA was extracted in phenol/chloroform, precipitated with ammonium acetate/ethanol, and resuspended in TE buffer. Following equalization of concentrations, extracted DNA was serially diluted in 96-well microtiter plates and 0.4 M NaOH/10 mM EDTA was added to each well. DNA was denatured in sealed plates by heating for 10 minutes in a 100° C. waterbath, transferred to nylon membranes (Hybond N, Amersham) using a vacuum dotblot manifold (Bio-Rad Laboratories, Hercules, Calif.), and immobilized by UV cross-linking. The cDNA probe was generated by HindIII digest of cosmid pCM 1015 (Fleckenstein et al., Gene, 18:39, 1982) which contains ˜45 kb of the UL region of the CMV AD169 genome. The probe was α-[^32P]dCTP-labelled by random priming. Unincorporated isotope was removed from labelled probe using a G-50 spin column (Worthington Biochemicals). Membranes were hybridized, washed, and bound probe was detected by autoradiography.

CMV DNA polymerase = assay type: biochemical; conditions: extracts of VHL/E-infected HUVEC or P8-infected HFF, various concentrations
[20] = in vivo; cited from earlier work
[21] = test system: rat CMV (RCMV RA67, Maastricht strain); experiment: Rat CMV infection of immunodeficient nude rats, tissue plaque assay; assay type: in vivo; conditions: RCMV i.p., leflunomide 15 mg/kg/day for 14 days, 14 days post-inoculation

In the case of Nc1ccn(C[C@@H](CO)OCP(=O)(O)O)c(=O)n1 [Cidofovir], the neutropenia ([1]; in vivo) is listed as “approximately 10 % of recipients”.

In the case of Cc1nocc1C(=O)Nc1ccc(C(F)(F)F)cc1 [Compound 99-126, N-(4-trifluoromethylphenyl)-3-methylisoxazol-4-carboxamide], the “CPE Inhibition test SI” value [2] is reported as 0, the “CPE Inhibition test SI” value (Adenovirus Type 1 [3]) is reported as 0 and the “CPE Inhibition test SI” value (Rhinovirus Type 5 [4]) is reported as 1. The “CPE Inhibition test SI” value (Influenza A (H1N1) [5]) was under 3.2, the EC50 (Influenza A (H1N1) [5]) was over 20 µM and the “CPE Inhibition test SI” value (Influenza A (H3N2) [6]) was 0. The EC50 (Influenza A (H3N2) [6]) was over 200 µM, the “Neutral Red Uptake test SI” value (Rhinovirus Type 5 [7]) was 0 and the “Neutral Red Uptake test SI” value (Influenza A (H3N2) [8]) was 1.0. For the same compound, the “Neutral Red Uptake test SI” value (Adenovirus Type 1 [9]) was 0, the “Neutral Red Uptake test SI” value (Measles Virus [10]) was 2 and the “Neutral Red Uptake test SI” value (Influenza A (H1N1) [11]) was 1.0. The “CPE Inhibition test SI” value (Measles Virus [12]) was 6, the EC50 (Influenza B [13]) was 60 µM and the “CPE Inhibition test SI” value (Influenza B [13]) was 1.2. The “Neutral Red Uptake test SI” value [14] was 0, the EC50 (hepatitis B virus (HBV)) was over 100 µM and the EC90 (hepatitis B virus (HBV); 2.2.15 cells) was over 100 µM. The “anti-viral effect on HBV (in words)” value (hepatitis B virus (HBV); summary of Table 2) was “some anti-viral effect”, the CC50 [15] was 110 µM and the “CPE Inhibition test SI” value [16] was 0. The “Neutral Red Uptake test SI” value (Influenza B [17]) was 1.0 and the “Neutral Red Uptake test SI” value [18] was 1.

With Cc1oncc1C(=O)Nc1cccc(C(F)(F)F)c1 [Compound 99-127, N-(3-trifluoromethylphenyl)-5-methylisoxazol-4-carboxamide] the “CPE Inhibition test SI” value [2] was 0, the “CPE Inhibition test SI” value (Influenza A (H1N1) [5]) was 0 and the EC50 (Influenza A (H1N1) [5]) was over 200 µM. For the same compound, the “CPE Inhibition test SI” value (Influenza A (H3N2) [6]) was 0, the EC50 (Influenza A (H3N2) [6]) was over 200 µM and the “Neutral Red Uptake test SI” value (Influenza A (H3N2) [8]) was 1.0. The “Neutral Red Uptake test SI” value (Measles Virus [10]) was 0, the “Neutral Red Uptake test SI” value (Influenza A (H1N1) [11]) was 1.0 and the “CPE Inhibition test SI” value (Measles Virus [12]) was 0. The EC50 (Influenza B [13]) was over 200 µM, the “CPE Inhibition test SI” value (Influenza B [13]) was 0 and the “Neutral Red Uptake test SI” value [14] was 0. For the same compound, the SI (hepatitis B virus (HBV); HBV, 2.2.15 cells) was 0.7, the EC50 (hepatitis B virus (HBV)) was 11 µM and the EC90 (hepatitis B virus (HBV); 2.2.15 cells) was 96 µM. For the same compound, the CC50 [15] was 67 µM, the “CPE Inhibition test SI” value [16] was 0 and the “Neutral Red Uptake test SI” value (Influenza B [17]) was 1.1. For the same compound, the “Neutral Red Uptake test SI” value [18] was 0.

For Nc1ncnc2c1ncn2C[C@@H](CO)OCP(=O)(O)O [HPMPA, reference compound], the “CPE Inhibition test SI” value (Adenovirus Type 1 [3]) was 8 and the “Neutral Red Uptake test SI” value (Adenovirus Type 1 [9]) was over 20.

In the case of O=C([O-])P(=O)(O)O.[Na+] [PFA, sodium phosphonoformate], the “frequency of each toxicity (renal dysfunction, hypomagnesemia, hypokalemia, hypocalcemia, seizures, fever, rash)” value ([1]; intravenous foscarnet) is given as “more than 5% of recipients”, the “expression of CMV pp65 and IE1” value ([19]; 24-48 hr pi) is given as “unimpeded” and the “expression of CMV late structural glycoprotein B (gB)” value ([19]; 96 hours pi) is given as “unable to express gB”. For the same compound, the “quantity of viral DNA synthesized” value (CMV DNA) was “no detectable CMV DNA” and the “CMV DNA polymerase activity” value (CMV DNA polymerase) was “complete inhibition at 1 mM”.

In the case of Cc1oncc1C(=O)Nc1ccc(C(F)(F)F)cc1 [leflunomide, N-(4-trifluoromethylphenyl)-5-methylisoxazol-4-carboxamide], the “toxicity in animal studies” value [20] is listed as “liver and cardiac toxicity” and the “viral load in salivary glands, lungs and spleens” value [21] is listed as “significantly reduced viral load”.

NC(=O)c1ncn([C@@H]2O[C@H](CO)[C@@H](O)[C@H]2O)n1 [ribavirin, reference compound] showed an EC50 ([2]; MA104, MA-104 cells, read-out: CPE Inhibition test EC50) of 230 µM, an EC50 (Measles Virus [10]; Measles morbillivirus, CV-1 cells, read-out: Neutral Red Uptake test EC50) of 41 µM and an EC50 (Measles Virus [12]; Measles morbillivirus, CV-1 cells, read-out: CPE Inhibition test EC50) of 41 µM. The EC50 ([14]; human respiratory syncytial virus, MA104, MA-104 cells, read-out: Neutral Red Uptake test EC50) was 82 µM, the EC50 ([16]; human respiratory syncytial virus, MA104, MA-104 cells, read-out: CPE Inhibition test EC50) was 290 µM and the EC50 ([18]; MA104, MA-104 cells, read-out: Neutral Red Uptake test EC50) was 120 µM.

With O=c1ccn([C@@H]2O[C@H](CO)[C@@H](O)[C@H]2O)c(=O)[nH]1 [uridine] the EC50 (hepatitis B virus (HBV)) was over 100 µM, the EC90 (hepatitis B virus (HBV); 2.2.15 cells) was over 100 µM and the CC50 [15] was over 100 µM.
